By Ki is commonly meant the dissociation constant of the complex between target and ligand, obtained from inhibition or displacement. Low values mean higher affinity, high ones lower affinity. A word on the pA2: it is the negative logarithm of the molar antagonist concentration that doubles the agonist concentration needed for the same response. A higher pA2 goes with a more potent antagonist.

Each structure is given as a SMILES string. The source made the active and inactive calls. The rule behind the calls is not given here.

Data on 21 compounds can be found in ChEMBL document CHEMBL1123772, “2,4-Diamino-6,7-dimethoxyquinazolines. 2. 2-(4-Carbamoylpiperidino) derivatives as alpha 1-adrenoceptor antagonists and antihypertensive agents” (J Med Chem, 1987).

Assay [1] deals with Adrenergic receptor alpha-2 (Rattus norvegicus) (UniProt P22086+P19328+P22909). The assay can be described thus: In vitro binding affinity determined for alpha-2 adrenergic receptor by the percentage displacement of [3H]- clonidine at 10e-6 M; Not active :Less than 50% activity. The class given is protein assay. In general terms: Loss of bound radioactivity is the signal in a displacement assay; it reports binding, not function.

Assay [2] addresses T1, Adrenergic receptor alpha-1 (Rattus norvegicus, UniProt P15823+P23944+P43140).
T1 sequence (P15823 whole entry): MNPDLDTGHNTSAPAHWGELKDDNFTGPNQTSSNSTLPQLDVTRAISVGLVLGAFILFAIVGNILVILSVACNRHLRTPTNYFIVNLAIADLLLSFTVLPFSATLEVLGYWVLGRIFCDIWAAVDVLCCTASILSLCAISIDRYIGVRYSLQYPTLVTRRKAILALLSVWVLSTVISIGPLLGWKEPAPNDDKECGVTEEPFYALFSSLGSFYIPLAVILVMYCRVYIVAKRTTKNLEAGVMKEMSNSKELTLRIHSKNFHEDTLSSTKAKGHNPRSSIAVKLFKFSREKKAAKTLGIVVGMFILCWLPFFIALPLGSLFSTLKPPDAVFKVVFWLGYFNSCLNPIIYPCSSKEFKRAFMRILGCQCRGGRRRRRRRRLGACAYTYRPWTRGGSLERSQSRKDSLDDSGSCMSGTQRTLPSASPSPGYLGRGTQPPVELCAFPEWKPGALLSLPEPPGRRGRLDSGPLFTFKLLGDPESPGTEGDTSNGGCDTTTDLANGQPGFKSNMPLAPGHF
T1 sequence (P23944 whole entry): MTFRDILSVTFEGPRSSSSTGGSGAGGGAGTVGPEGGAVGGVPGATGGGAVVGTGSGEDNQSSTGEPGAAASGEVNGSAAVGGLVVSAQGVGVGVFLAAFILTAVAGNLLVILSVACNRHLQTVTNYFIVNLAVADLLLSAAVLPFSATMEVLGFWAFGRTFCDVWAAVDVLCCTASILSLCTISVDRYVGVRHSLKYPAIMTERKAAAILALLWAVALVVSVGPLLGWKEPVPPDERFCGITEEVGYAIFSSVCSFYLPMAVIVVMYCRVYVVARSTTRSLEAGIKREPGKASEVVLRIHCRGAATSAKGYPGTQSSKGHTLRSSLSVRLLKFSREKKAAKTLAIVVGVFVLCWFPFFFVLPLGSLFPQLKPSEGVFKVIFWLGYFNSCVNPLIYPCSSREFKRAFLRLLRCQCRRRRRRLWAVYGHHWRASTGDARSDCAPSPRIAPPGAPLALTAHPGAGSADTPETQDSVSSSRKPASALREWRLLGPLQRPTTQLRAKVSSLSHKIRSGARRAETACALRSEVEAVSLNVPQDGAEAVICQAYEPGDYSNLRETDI
T1 sequence (P43140 whole entry): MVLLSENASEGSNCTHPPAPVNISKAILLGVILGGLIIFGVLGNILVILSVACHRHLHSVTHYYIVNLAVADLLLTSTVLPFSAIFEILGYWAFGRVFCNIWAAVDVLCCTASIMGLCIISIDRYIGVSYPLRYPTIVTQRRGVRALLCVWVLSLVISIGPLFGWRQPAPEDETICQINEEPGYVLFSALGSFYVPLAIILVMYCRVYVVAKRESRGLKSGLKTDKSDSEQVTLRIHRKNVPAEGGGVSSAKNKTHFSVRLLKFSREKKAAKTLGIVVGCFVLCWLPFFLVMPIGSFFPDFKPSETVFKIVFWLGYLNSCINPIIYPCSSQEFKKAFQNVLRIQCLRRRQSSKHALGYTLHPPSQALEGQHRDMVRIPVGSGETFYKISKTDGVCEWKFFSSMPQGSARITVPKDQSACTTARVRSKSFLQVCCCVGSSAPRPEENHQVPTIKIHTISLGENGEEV
As to the kind of experiment: In vitro binding affinity determined for alpha-1 adrenergic receptor by the displacement of [3H]- prazosin. The class given is protein assay.

A further assay has as its system Rattus norvegicus. The assay can be described thus: Antihypertensive activity determined in spontaneously hypertensive rats(SHR) by percent reduction in blood pressure at 5 mg/kg peroral administration at 4 hour. The class given is functional. To be noted: route oral.
In assay [3] the test system is Adrenergic receptor alpha-2 (Oryctolagus cuniculus). The assay can be described thus: Competitive antagonist activity of the pre junctional alpha-2 adrenergic receptor mediated vasoconstrictor action of norepinephrine expressed as concentration producing 40% reduction in contractile response at 10e-5 M; No activity.
In assay [4] the target is Adrenergic receptor alpha. The assay can be described thus: Tested for functional alpha-antagonist activity against norepinephrine in rabbit aorta and pulmonary artery. The class given is tissue-based, Oryctolagus cuniculus.
Assay [5] relates to Adrenergic receptor alpha-1 (Oryctolagus cuniculus).

In assay [1], `COc1cc2nc(N3CCC(C(=O)NCC4CC4)CC3)nc(N)c2cc1OC` returned a Displacement of less than 50%. This compound showed a Ki in assay [2] of 0.9 nM.

Compound `CCN(CC)C(=O)C1CCCN(c2nc(N)c3cc(OC)c(OC)cc3n2)C1` (centres undefined) had a Reduction in the assay with Rattus norvegicus of 16%. The Displacement in assay [1] was less than 50%. Besides, in assay [2], the Ki was determined as 116.73 nM.

As to `CCCNC(=O)CC1CCN(c2nc(N)c3cc(OC)c(OC)cc3n2)CC1`, the EC40 result in assay [3] is “inactive”. Also, the pA2 in assay [4] was 7.42. The Ki in assay [2] is listed as 0.65 nM. In addition, the EC40 in assay [5] was 18 nM.

In turn, `CCCCNC(=O)CC1CCN(c2nc(N)c3cc(OC)c(OC)cc3n2)CC1` came in with a Ki in assay [2] of 1.4 nM.

In turn, `CCN(CC)C(=O)C1CCN(c2nc(N)c3cc(OC)c(OC)cc3n2)CC1` showed a Displacement in assay [1] of less than 50%. Further, the Ki in assay [2] amounted to 1.11 nM.

Consider `COc1cc2nc(N3CCC(C(=O)NC4CCCC4)CC3)nc(N)c2cc1OC`, for which the Displacement in assay [1] was less than 50%. For the same compound, in assay [2], the inhibition constant (Ki) is 0.63 nM.

In assay [1], `COc1cc2nc(N3CCC(C(=O)N4CCOCC4)CC3)nc(N)c2cc1OC` yielded a Displacement of less than 50%. In assay [2], this compound returned a Ki of 1.14 nM.

As for `CCCCNC(=O)C1CCN(c2nc(N)c3cc(OC)c(OC)cc3n2)CC1`, the Ki in assay [2] is 0.67 nM.

The compound `COc1cc2nc(N3CCC(C(=O)NCCc4ccccc4)CC3)nc(N)c2cc1OC` came in with a Ki in assay [2] of 0.1 nM.

With `CCCCNC(=O)C1CCCN(c2nc(N)c3cc(OC)c(OC)cc3n2)C1` (centres undefined), the Displacement in assay [1] was less than 50%. Moreover, the Ki in assay [2] is 8.25 nM.

In assay [2], `COc1cc2nc(N3CCC(C(N)=O)CC3)nc(N)c2cc1OC` gave a Ki of 1.46 nM.

In assay [1], `CCNC(=O)C1CCN(c2nc(N)c3cc(OC)c(OC)cc3n2)CC1` had a Displacement of less than 50%. In addition, the Ki in assay [2] is 1.64 nM.

Compound `COc1cc2nc(N3CCC(C(=O)N(C)Cc4ccccc4)CC3)nc(N)c2cc1OC` gave a Ki in assay [2] of 0.2 nM.

In assay [2], `CCCCNC(=O)COC1CCN(c2nc(N)c3cc(OC)c(OC)cc3n2)CC1` returned an inhibitory constant (Ki) of 0.79 nM.

`COc1cc2nc(N3CCC(C(=O)Nc4ccccc4)CC3)nc(N)c2cc1OC` returned a Displacement in assay [1] of less than 50%. Moreover, in assay [2], the inhibitory constant (Ki) turned out to be 0.47 nM.

Compound `COc1cc2nc(N3CCC(C(=O)NCc4ccccc4)CC3)nc(N)c2cc1OC` returned a Ki in assay [2] of 0.22 nM.

The compound `COc1cc2nc(N3CCC(C(=O)NCCO)CC3)nc(N)c2cc1OC` returned a Reduction in the assay on Rattus norvegicus of 5%. Further, in assay [1], the Displacement was less than 50%. The compound also showed an inhibition constant (Ki) in assay [2] of 1.73 nM.

`COc1cc2nc(N3CCC(C(=O)NCCOc4ccccc4)CC3)nc(N)c2cc1OC` gave a Ki in assay [2] of 0.42 nM.

`COCCNC(=O)C1CCN(c2nc(N)c3cc(OC)c(OC)cc3n2)CC1`: the Displacement in assay [1] is less than 50%. This compound registered a Ki in assay [2] of 1.13 nM.

Turning to `COc1cc2nc(N3CCC(CC(=O)NCC4CC4)CC3)nc(N)c2cc1OC`, in assay [3], the EC40 result was “inactive”. In addition, the pA2 in assay [4] amounted to 7.25. Moreover, the Ki in assay [2] is on record as 1.08 nM. The EC40 in assay [5] was determined as 97 nM.

As to `CCCCNC(=O)CCC1CCN(c2nc(N)c3cc(OC)c(OC)cc3n2)CC1`, the Ki in assay [2] was 0.47 nM.
